In patent publication US20200308165A1, “Compounds as Ras Inhibitors and Use Thereof” (D.E. Shaw Research, LLC, priority 2017, published 2020):

Legend:
Ras protein = Ras protein (Homo sapiens, UniProt P01116); test: GDPx_Icagen_IC50: SOS1-mediated guanine nucleotide exchange rate of Ras (mant-GDP); assay type: biochemical; settings: SOS1-initiated exchange
Text: (§1) In some embodiments, the IC50 assay measures the reduction effect of a given compound on the guanine nucleotide-echange rate of Ras protein in the presence of guanine nucleotide exchange protein SOS1, which is a Ras activator. In the assay GDP-loaded Ras was first prepared in a buffer containing the compound at certain concentration and fluorescent guanine nucleotide (mant-GDP (used in Icagene assay) or mant-GTP (used in other IC50 assays). The guanine nucleotide exchange was initiated by the addition of the SOS1 and its rate was reflected in the rate of fluorescence change as a function of time, which was monitored by a reader. The experiment was repeated at different compound concentrations and the IC50 of the compound was defined as the compound concentration at which half of its maximal reduction effect on the guanine nucleotide exchange rate is achieved. In other embodiments, other Ras activator proteins may be used. Non-limiting examples of other Ras activator proteins include RasGRP (Ras guanyl-releasing protein).
Example 17. Evaluation of Biological Activities: GDPx_Icagen_ICso
as §1, with “The IC50” for “In some embodiments, the IC50”, “guanine nucleotide-exchange” for “guanine nucleotide-echange”, “Ras is” for “Ras was”, “nucleotide (mant-GDP).” for “nucleotide (mant-GDP (used in Icagene assay) or mant-GTP (used in other IC50 assays).”, “achieved.” for “achieved. In other embodiments, other Ras activator proteins may be used. Non-limiting examples of other Ras activator proteins include RasGRP (Ras guanyl-releasing protein).”

KRAS4B (wild type) = biological target: T1, KRAS4B (wild type) (Homo sapiens, UniProt P01116); test: K-Ras Nucleotide Exchange Assay-384 (SOS Exchange Assay by Cytoskeleton, GTPx_Cyt_IC50); assay type: biochemical; settings: 1 μM KRAS4B, 0.05 μM SOS1, 1.5 μM mant-GDP
T1 construct: purchased Cytoskeleton CS-RS03 (K-Ras4B); CS-SOS1-A (SOS1)
T1 sequence (P01116 1-188 isoform P01116-2): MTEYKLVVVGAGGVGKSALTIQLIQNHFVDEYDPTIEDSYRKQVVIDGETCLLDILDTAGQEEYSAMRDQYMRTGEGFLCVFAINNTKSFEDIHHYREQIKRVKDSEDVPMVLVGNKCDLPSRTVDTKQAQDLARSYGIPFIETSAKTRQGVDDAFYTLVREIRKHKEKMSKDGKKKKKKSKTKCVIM
Description: Example 16. Evaluation of Biological Activities: K-Ras Nucleotide Exchange Assay-384 (SOS Exchange Assay by Cytoskeleton (GTPx_Cyt_IC50))
This assay is used to evaluate inhibitors of K-ras, by monitoring the inhibition of nucleotide exchange over time, in the presence of the protein SOS.
384-well black, untreated plates (Corning 3820 with NBS or 3821 untreated) were used. K-Ras4B Protein was used, which is wild-type (Cytoskeleton #CS-RS03) with a concnetration of 5 mg/ml, or 200 μM. Human SOS1 Protein, Exchange Domain 564-1049 (Cytoskeleton # CS-SOS1-A) was used in a concentration of 3.03 mg/ml or 50 μM. Mant-GDP triethylammonium salt solution was purchased from Sigma (catalog No. 69244). 1M stock solution of Hepes was purchased from Sigma (catalog No. H9897). 1M stock solution of MgCl2 was purchased from Sigma (catalog No. M4880). CHAPS, 3% was purchased from Sigma (catalog No. C5070). Nonidet P40 was purchased from Sigma. KOH pellets were purchased from Sigma.
K-ras buffer containing 40 mM Hepes, 10 mM MgCl2, 0.05% CHAPS, 0.01% NP40 with a pH 7.5 was prepared as follows: to a Buffer base containing 4 ml 1M Hepes, 1 ml MgCl2,
93.3 ml d-H2O, pH 7.5 (with KOH pellets), 1.7 ml 3% CHAPS was added, followed by the addition of 1 ml 1% NP40.
Final Conditions of the method included 1 μM KRAS4B (wild type), 0.05 μM SOS1, 1.5 μM mant-GDP. Reagent Preparation included: thawing aliquots of KRAS, SOS, and mant-GDP; preparing 3x KRAS (3 uM) in assay buffer; preparing 3x SOS/mant-GDP (150 nM/4.5 uM) in assay buffer; and preparing 3x compounds in assay buffer.
Assay Procedure (1536) used 3.3 μl, 3x Kras, 3.3 μl 3x compound with preincubate 0 hour, and […] 3x SOS/mant-GDP. A kinetic read measuring fluorescence at 360_450 was performed for 30 min at 30 second intervals.
Reference compound SCH 54292 (reversible inhibitor) at about 100 μM was used with no preincubation. Reagents were only stable for 45 min on ice, and therefore were prepared fresh before each assay. Partial plates (up to 9 columns) were run at a time to minimize effects due to the amount of time it takes to read a whole plate. SOS/mant-GDP were added with an automated pipettor to initiate all reactions at the same time. Assay was typically performed at 0.5% solution in DMSO (compounds prepared in 1.5% DMSO initially).
Clariostar Settings were as follows. Test Name was Kras Kinetic 360-450. Basic settings of the test included Measurement type as Fluorescence (FI), and Microplate name as Corning 3820. Plate mode settings included 61 cycles, 30 second cycle time, and 10 flashes per well. Optic settings were as follows. Excitation wavelength was 360 nm. Emission wavelength was 450 nM. Excitation bandwidth was 12 nm. Emission bandwidth was 12 nm. Dichroic filter 405 was used. D6 Well(s) was used for gain adjustment. No shaking was used. General settings were as follows. Top optic was used. Settling time was 0.1 second. Reading direction was bidirectional, horizontal left to right, and bottom to top. The target temperature was 25° C.

Chain of Ras protein (P01116 1-188 isoform P01116-2): as above

Compound | IC50 (Ras protein) [nM] | IC50 (KRAS4B (wild type)) [µM]
O=c1cc(CSc2nnc(-c3ccccc3)o2)[nH]n1-c1nc2ccccc2[nH]1 [Compound 153, 2-(1H-benzo[d]imidazol-2-yl)-5-(((5-phenyl-1,3,4-oxadiazol-2-yl)thio)methyl)-1,2-dihydro-3H-pyrazol-3-one] | 2000 | 0.8
O=c1cc(CSc2nc3cc(Cl)ccc3s2)[nH]n1-c1nc2ccccc2[nH]1 [Compound 154, 2-(1H-benzo[d]imidazol-2-yl)-5-(((5-chlorobenzo[d]thiazol-2-yl)thio)methyl)-1,2-dihydro-3H-pyrazol-3-one] | 300 | 1.3
O=c1cc(CSc2ncccn2)[nH]n1-c1nc2ccccc2[nH]1 [Compound 156, 2-(1H-benzo[d]imidazol-2-yl)-5-((pyrimidin-2-ylthio)methyl)-1,2-dihydro-3H-pyrazol-3-one] | 3000 | 7
O=c1cc(CSc2ccc(Br)cn2)[nH]n1-c1nc2ccccc2[nH]1 [Compound 158, 2-(1H-benzo[d]imidazol-2-yl)-5-(((5-bromopyridin-2-yl)thio)methyl)-1,2-dihydro-3H-pyrazol-3-one] | 200 | 0.53
[N-]=[N+]=NCc1ccc(SCc2cc(=O)n(-c3nc4ccccc4[nH]3)[nH]2)cc1 [Compound 162, 5-(((4-(azidomethyl)phenyl)thio)methyl)-2-(1H-benzo[d]imidazol-2-yl)-1,2-dihydro-3H-pyrazol-3-one] | 100000 | 1.4
Cc1cc(C)nc(CSCc2cc(=O)n(-c3nc4ccccc4[nH]3)[nH]2)n1 [Compound 164, 2-(1H-benzo[d]imidazol-2-yl)-5-((((4,6-dimethylpyrimidin-2-yl)methyl)thio)methyl)-1,2-dihydro-3H-pyrazol-3-one] | 22000 | 0.63
O=c1cc(CSc2ccccc2Cl)[nH]n1-c1nc2ccccc2[nH]1 [Compound 167, 2-(1H-benzo[d]imidazol-2-yl)-5-(((2-chlorophenyl)thio)methyl)-1,2-dihydro-3H-pyrazol-3-one] | 200 | 300
Cc1cccc(-n2[nH]c(CSc3ccccc3)cc2=O)n1 [Compound 169, 2-(6-methylpyridin-2-yl)-5-((phenylthio)methyl)-1,2-dihydro-3H-pyrazol-3-one] | 7000 | 2.6
Cn1c(-n2[nH]c(CSc3ccccc3)cc2=O)nc2ccccc21 [Compound 170, 2-(1-methyl-1H-benzo[d]imidazol-2-yl)-5-((phenylthio)methyl)-1,2-dihydro-3H-pyrazol-3-one] | 11900 | 6.1
O=c1cc(CSc2ccc(Cl)c(Cl)c2)[nH]n1-c1nc2ccccc2[nH]1 [Compound 172, 2-(1H-benzo[d]imidazol-2-yl)-5-(((3,4-dichlorophenyl)thio)methyl)-1,2-dihydro-3H-pyrazol-3-one] | 200 | 0.8
Cc1cc(C)nc(SCc2cc(=O)n(-c3nc4ccccc4s3)[nH]2)n1 [Compound 184, 2-(benzo[d]thiazol-2-yl)-5-(((4,6-dimethylpyrimidin-2-yl)thio)methyl)-1,2-dihydro-3H-pyrazol-3-one] | 5800 | 13.6
Cc1ccc(SCc2cc(=O)n(-c3nc4ccccc4[nH]3)[nH]2)cc1 [Compound 186, 2-(1H-benzo[d]imidazol-2-yl)-5-((p-tolylthio)methyl)-1,2-dihydro-3H-pyrazol-3-one] | 1300 | 500

Next, values leading:

IC50 (Ras protein) [nM] | IC50 (KRAS4B (wild type)) [µM] | Compound
600 | 0.61 | Cc1csc(SCc2cc(=O)n(-c3nc4ccccc4[nH]3)[nH]2)n1 [Compound 152, 2-(1H-benzo[d]imidazol-2-yl)-5-(((4-methylthiazol-2-yl)thio)methyl)-1,2-dihydro-3H-pyrazol-3-one]
500 | 1 | NC(=O)c1cccc(SCc2cc(=O)n(-c3nc4ccccc4[nH]3)[nH]2)c1 [Compound 159, 3-(((1-(1H-benzo[d]imidazol-2-yl)-5-oxo-2,5-dihydro-1H-pyrazol-3-yl)methyl)thio)benzamide]
500 | 1 | CN1CCN(Cc2ccc(SCc3cc(=O)n(-c4nc5ccccc5[nH]4)[nH]3)cc2)CC1 [Compound 163, 2-(1H-benzo[d]imidazol-2-yl)-5-(((4-((4-methylpiperazin-1-yl)methyl)phenyl)thio)methyl)-1,2-dihydro-3H-pyrazol-3-one]
200000 | 300 | Cc1cc(C)nc(SCc2cc(=O)n(-c3ccccn3)n2C)n1 [Compound 165, 5-(((4,6-dimethylpyrimidin-2-yl)thio)methyl)-1-methyl-2-(pyridin-2-yl)-1,2-dihydro-3H-pyrazol-3-one]
48800 | 331 | O=c1cc(CSc2ccccc2)[nH]n1-c1cnccn1 [Compound 166, 5-((phenylthio)methyl)-2-(pyrazin-2-yl)-1,2-dihydro-3H-pyrazol-3-one]
2300 | 7 | O=c1cc(CSc2ccncc2)[nH]n1-c1nc2ccccc2[nH]1 [Compound 168, 2-(1H-benzo[d]imidazol-2-yl)-5-((pyridin-4-ylthio)methyl)-1,2-dihydro-3H-pyrazol-3-one]
170 | 100 | O=c1cc(CSc2cccc(Cl)c2)[nH]n1-c1nc2ccccc2[nH]1 [Compound 171, 2-(1H-benzo[d]imidazol-2-yl)-5-(((3-chlorophenyl)thio)methyl)-1,2-dihydro-3H-pyrazol-3-one]
500 | 100 | N#Cc1cccc(SCc2cc(=O)n(-c3nc4ccccc4[nH]3)[nH]2)c1 [Compound 173, 3-(((1-(1H-benzo[d]imidazol-2-yl)-5-oxo-2,5-dihydro-1H-pyrazol-3-yl)methyl)thio)benzonitrile]
9300 | 2.7 | Cc1ccnc(-n2[nH]c(CSc3ccccc3)cc2=O)c1 [Compound 174, 2-(4-methylpyridin-2-yl)-5-((phenylthio)methyl)-1,2-dihydro-3H-pyrazol-3-one]
200 | 300 | O=c1cc(CSc2ccc(Cl)cc2)[nH]n1-c1nc2ccccc2[nH]1 [Compound 183, 2-(1H-benzo[d]imidazol-2-yl)-5-(((4-chlorophenyl)thio)methyl)-1,2-dihydro-3H-pyrazol-3-one]
5900 | 340 | O=c1cc(CSc2ccccn2)[nH]n1-c1nc2ccccc2s1 [Compound 185, 2-(benzo[d]thiazol-2-yl)-5-((pyridin-2-ylthio)methyl)-1,2-dihydro-3H-pyrazol-3-one]
